Results: ChEMBL document CHEMBL4219201, “Secoiridoid analogues from the fruits of Ligustrum lucidum and their inhibitory activities against influenza A virus” (Bioorg Med Chem Lett, 2018)
Calls of active or inactive are those of the source. The rule behind the calls is not given here.

Tested on: Influenza A virus
Experiment: Antiviral activity against Influenza A virus (A/WSN/1933(H1N1)) infected in MDCK cells cocultured with human 293T-Gluc cells at 100 uM preincubated with compound for 2 hrs followed by virus infection measured after 24 hrs by luciferase reporter gene assay relative to control
Format: functional
Details: not given

Row | SMILES | inhibition at 100 µM | inhibition
1 | COC(=O)C1=CO[C@@H](O[C@@H]2O[C@H](CO)[C@@H](O)[C@H](O)[C@H]2O)/C(=C/C(=O)O)[C@@H]1CC(=O)OCCc1ccc(O)cc1 | 81.7% | –
2 | C=C[C@H]1[C@H](O[C@@H]2O[C@H](COC(=O)/C=C/c3ccccc3)[C@@H](O)[C@H](O)[C@H]2O)OC=C(C(=O)O)[C@H]1CC(=O)OC | – | inactive
3 | COC(=O)C[C@@H]1C(C(=O)OC)=CO[C@@H](C)[C@@H]1C(OC)OC | – | inactive
4 | C/C=C1/[C@H]2OC=C(C(=O)OC)[C@H]1CC(=O)OC[C@@H](c1ccc(O)c(O)c1)OC[C@H]1O[C@@H](O2)[C@H](O)[C@@H](O)[C@@H]1O | – | inactive
5 | C/C=C1/[C@H](O[C@@H]2O[C@H](CO[C@@H]3O[C@H](CO)[C@@H](O)[C@H](O)[C@H]3O)[C@@H](O)[C@H](O)[C@H]2O)OC=C(C(=O)OC)[C@H]1CC(=O)OCCc1ccc(O)cc1 | 60.8% | –
6 | COC(=O)C1=CO[C@@H](O[C@@H]2O[C@H](CO)[C@@H](O)[C@H](O)[C@H]2O)[C@@](O)(CC(=O)O)[C@@H]1CC(=O)O | 76.2% | –
7 | C[C@H]1OC(=O)CC2C(C(=O)O)=CO[C@@H](O[C@@H]3O[C@H](COC(=O)/C=C/c4ccccc4)[C@@H](O)[C@H](O)[C@H]3O)C21 (stereo partly specified) | 33.3% | –
8 | C=C[C@H]1[C@H](O[C@@H]2O[C@H](COC(=O)/C=C/c3ccccc3)[C@@H](O)[C@H](O)[C@H]2O)OC=C(C(=O)O)[C@H]1CC(=O)O | 73.9% | –
9 | C/C=C1/[C@H]2OC=C(C(=O)OC)[C@H]1CC(=O)OC[C@H](c1ccc(O)c(O)c1)OC[C@H]1O[C@@H](O2)[C@H](O)[C@@H](O)[C@@H]1O | – | inactive
10 | CCOC(=O)C[C@@H]1C(C(=O)OC)=CO[C@@H](C)[C@@H]1C=O | 96.8% | –
11 | COC(=O)C1=CO[C@@H](O[C@@H]2O[C@H](CO)[C@@H](O)[C@H](O)[C@H]2O)/C(=C/C(=O)O)[C@@H]1CC(=O)OCCc1ccc(O)c(O)c1 | 83.2% | –

Tested on: Influenza A virus
Experiment: Antiviral activity against Influenza A virus (A/WSN/1933(H1N1)) infected in MDCK cells cocultured with human 293T-Gluc cells at 20 uM preincubated with compound for 2 hrs followed by virus infection measured after 24 hrs by luciferase reporter gene assay relative to control
Format: functional
Details: not given

Row | SMILES | inhibition at 20 µM | inhibition
12 | COC(=O)C1=CO[C@@H](O[C@@H]2O[C@H](CO)[C@@H](O)[C@H](O)[C@H]2O)/C(=C/C(=O)O)[C@@H]1CC(=O)OCCc1ccc(O)cc1 | 60.4% | –
13 | C=C[C@H]1[C@H](O[C@@H]2O[C@H](COC(=O)/C=C/c3ccccc3)[C@@H](O)[C@H](O)[C@H]2O)OC=C(C(=O)O)[C@H]1CC(=O)OC | – | inactive
14 | COC(=O)C[C@@H]1C(C(=O)OC)=CO[C@@H](C)[C@@H]1C(OC)OC | – | inactive
15 | C/C=C1/[C@H]2OC=C(C(=O)OC)[C@H]1CC(=O)OC[C@@H](c1ccc(O)c(O)c1)OC[C@H]1O[C@@H](O2)[C@H](O)[C@@H](O)[C@@H]1O | – | inactive
16 | C/C=C1/[C@H](O[C@@H]2O[C@H](CO[C@@H]3O[C@H](CO)[C@@H](O)[C@H](O)[C@H]3O)[C@@H](O)[C@H](O)[C@H]2O)OC=C(C(=O)OC)[C@H]1CC(=O)OCCc1ccc(O)cc1 | 17.8% | –
17 | COC(=O)C1=CO[C@@H](O[C@@H]2O[C@H](CO)[C@@H](O)[C@H](O)[C@H]2O)[C@@](O)(CC(=O)O)[C@@H]1CC(=O)O | 29.4% | –
18 | C[C@H]1OC(=O)CC2C(C(=O)O)=CO[C@@H](O[C@@H]3O[C@H](COC(=O)/C=C/c4ccccc4)[C@@H](O)[C@H](O)[C@H]3O)C21 (stereo partly specified) | 35.6% | –
19 | C=C[C@H]1[C@H](O[C@@H]2O[C@H](COC(=O)/C=C/c3ccccc3)[C@@H](O)[C@H](O)[C@H]2O)OC=C(C(=O)O)[C@H]1CC(=O)O | 60.8% | –
20 | C/C=C1/[C@H]2OC=C(C(=O)OC)[C@H]1CC(=O)OC[C@H](c1ccc(O)c(O)c1)OC[C@H]1O[C@@H](O2)[C@H](O)[C@@H](O)[C@@H]1O | – | inactive
21 | CCOC(=O)C[C@@H]1C(C(=O)OC)=CO[C@@H](C)[C@@H]1C=O | 55.8% | –
22 | COC(=O)C1=CO[C@@H](O[C@@H]2O[C@H](CO)[C@@H](O)[C@H](O)[C@H]2O)/C(=C/C(=O)O)[C@@H]1CC(=O)OCCc1ccc(O)c(O)c1 | 63.1% | –

Tested on: Influenza A virus
Experiment: Antiviral activity against Influenza A virus (A/WSN/1933(H1N1)) infected in MDCK cells cocultured with human 293T-Gluc cells preincubated with compound for 2 hrs followed by virus infection measured after 24 hrs by luciferase reporter gene assay
Format: functional, organism-based
Details: not given

Row | SMILES | IC50
23 | COC(=O)C1=CO[C@@H](O[C@@H]2O[C@H](CO)[C@@H](O)[C@H](O)[C@H]2O)/C(=C/C(=O)O)[C@@H]1CC(=O)OCCc1ccc(O)cc1 | 12.5 µM
24 | NC(=O)c1ncn([C@@H]2O[C@H](CO)[C@@H](O)[C@H]2O)n1 [RIBAVIRIN] | 22.6 µM
25 | C=C[C@H]1[C@H](O[C@@H]2O[C@H](COC(=O)/C=C/c3ccccc3)[C@@H](O)[C@H](O)[C@H]2O)OC=C(C(=O)O)[C@H]1CC(=O)O | 16.5 µM
26 | CCOC(=O)C[C@@H]1C(C(=O)OC)=CO[C@@H](C)[C@@H]1C=O | 18.5 µM
27 | COC(=O)C1=CO[C@@H](O[C@@H]2O[C@H](CO)[C@@H](O)[C@H](O)[C@H]2O)/C(=C/C(=O)O)[C@@H]1CC(=O)OCCc1ccc(O)c(O)c1 | 13.1 µM

Tested on: not listed separately
Experiment: Cytotoxicity against MDCK cells assessed as reduction in cell viability by CCK8 assay
Format: cell-based, Canis lupus familiaris
Details: dog

Row | SMILES | CC50
28 | COC(=O)C1=CO[C@@H](O[C@@H]2O[C@H](CO)[C@@H](O)[C@H](O)[C@H]2O)/C(=C/C(=O)O)[C@@H]1CC(=O)OCCc1ccc(O)cc1 | > 100 µM
29 | C=C[C@H]1[C@H](O[C@@H]2O[C@H](COC(=O)/C=C/c3ccccc3)[C@@H](O)[C@H](O)[C@H]2O)OC=C(C(=O)O)[C@H]1CC(=O)O | 80.5 µM
30 | CCOC(=O)C[C@@H]1C(C(=O)OC)=CO[C@@H](C)[C@@H]1C=O | 90.8 µM
31 | COC(=O)C1=CO[C@@H](O[C@@H]2O[C@H](CO)[C@@H](O)[C@H](O)[C@H]2O)/C(=C/C(=O)O)[C@@H]1CC(=O)OCCc1ccc(O)c(O)c1 | > 100 µM
